Assay results taken from PMC6934184, “Selective DNA-PKcs inhibition extends the therapeutic index of localized radiotherapy and chemotherapy” (The Journal of Clinical Investigation, 2019).

Biological target: T1, NEK1 (Homo sapiens, UniProt Q96PY6)
T1 construct: purchased Thermo Fisher Scientific (Life Technologies) SelectScreen
Assay: SelectScreen Z'LYTE
Type: biochemical
Description: The in vitro kinase selectivity of NU5455 was determined using the SelectScreen Broad Assay Panel (Thermo Fisher Scientific) involving activity and binding assays (Supplemental Table 1). […] Class IA PI3Ks were measured using the p85α subunit.
Kinase [ATP] % Assay Kinase [ATP] % Assay Kinase [ATP] % Assay Kinase [ATP] % Assay
DNA-PK Km app 98.3 Z LATS2 n/a 4.7 L KIT D820E n/a 1.3 L GSK3B (GSK3 beta) Km app -2.5 Z
PIK3C3 (hVPS34) Km app 85.9 A PRKCZ (PKC zeta) Km app 4.7 Z GRK1 n/a 1.3 L BMPR2 n/a -2.5 L
PIK3C2B (PI3K-C2 beta) 10 28.9 A FGFR1 Km app 4.7 Z BRSK2 n/a 1.2 L CDC42 BPB (MRCKB) Km app -2.5 Z
SNF1LK2 Km app 26.6 Z MINK1 Km app 4.6 Z NUAK1 (ARK5) Km app 1.2 A AMPK (A2/B2/G2) n/a -2.6 L
HCK Km app 18.0 Z CSF1R (FMS) Km app 4.3 Z CDK9/cyclin K n/a 1.0 L PRKG1 Km app -2.7 Z
NEK2 Km app 17.8 Z CSNK1G3 (CK1 gamma 3) Km app 4.2 Z NUAK2 n/a 1.0 L KIT T670E n/a -2.8 L
ALK Km app 17.3 Z STK32C (YANK3) n/a 4.2 L CDK2/cyclin O n/a 0.9 L ERBB4 (HER4) Km app -2.8 Z
FGFR3 K650M n/a 16.5 L STK22D (TSSK1) Km app 4.2 Z CAMKK2 (CaMKK beta) n/a 0.9 L PLK4 n/a -2.8 L
SIK3 n/a 16.1 L TAOK3 (JIK) n/a 4.2 L FGFR3 Km app 0.9 Z GRK7 Km app -3.0 Z
LYN A Km app 15.2 Z RPS6KA4 (MSK2) Km app 4.2 Z ULK2 n/a 0.9 L MAPKAPK2 Km app -3.1 Z
BMPR1B (ALK6) n/a 14.5 L PTK2B (FAK2) Km app 4.2 Z KIT D816V n/a 0.9 L FGFR4 Km app -3.1 Z
INSRR (IRR) Km app 14.1 Z CLK2 Km app 4.1 Z CAMK1 (CaMK1) 10 0.8 A CASK n/a -3.1 L
PLK2 Km app 14.1 Z STK24 (MST3) Km app 4.1 Z PTK6 (Brk) Km app 0.7 Z GRK5 Km app -3.2 Z
PRKACA (PKA) Km app 14.0 Z CAMK1D (CaMKI delta) Km app 4.1 Z CAMK2B (CaMKII beta) Km app 0.7 Z EGFR (ErbB1) T790M Km app -3.3 Z
EIF2AK2 (PKR) n/a 13.3 L INSR Km app 4.1 Z ACVR1 (ALK2) n/a 0.7 L PAK4 Km app -3.3 Z
PRKX Km app 12.5 Z IRAK1 Km app 4.0 A ABL1 H396P n/a 0.6 L DAPK3 (ZIPK) Km app -3.4 Z
FGR Km app 12.1 Z SRC N1 Km app 3.9 Z MERTK (cMER) A708S n/a 0.6 L RET M918T n/a -3.5 L
CLK1 Km app 11.7 Z SRPK2 Km app 3.9 Z MAPKAPK5 (PRAK) Km app 0.6 Z PRKCQ (PKC theta) Km app -3.7 Z
MARK3 Km app 11.4 Z RPS6KA6 (RSK4) Km app 3.8 Z AKT1 (PKB alpha) Km app 0.5 Z CAMKK1 (CAMKKA) n/a -3.8 L
PDGFRB (PDGFR beta) Km app 11.0 Z GRK6 Km app 3.7 Z NTRK3 (TRKC) Km app 0.4 Z FLT3 D835Y Km app -3.9 Z
PRKCN (PKD3) Km app 10.7 Z PKN1 (PRK1) Km app 3.6 Z ZAP70 Km app 0.3 Z ROCK2 Km app -4.1 Z
STK16 (PKL12) n/a 10.5 L MAP3K8 (COT) 100 3.5 Z CSNK1A1 (CK1 alpha 1) Km app 0.3 Z CHUK (IKK alpha) Km app -4.2 A
FES (FPS) Km app 10.4 Z FLT4 (VEGFR3) Km app 3.5 Z MYLK (MLCK) n/a 0.2 L AXL Km app -4.2 Z
ABL1 Km app 10.4 Z GRK4 Km app 3.5 Z MKNK2 (MNK2) n/a 0.2 L PIM2 Km app -4.3 Z
MUSK Km app 10.3 Z FRK (PTK5) Km app 3.4 Z AMPK (A1/B1/G3) n/a 0.2 L PAK1 Km app -4.4 Z
MAPK1 (ERK2) Km app 10.1 Z FYN A n/a 3.3 L MAP3K2 (MEKK2) n/a 0.1 L BMPR1A (ALK3) n/a -4.4 L
BRAF 100 9.9 Z CDK1/cyclin A2 n/a 3.3 L CDK8/cyclin C n/a 0.1 L STK4 (MST1) Km app -4.4 Z
IGF1R Km app 9.7 Z KIT V559D T670I n/a 3.1 L MARK2 Km app 0.1 Z PRKCH (PKC eta) Km app -4.6 Z
MAPK14 (p38 alpha) Km app 9.7 Z SPHK2 10 3.1 A ICK n/a 0.0 L SGKL (SGK3) Km app -4.6 Z
LCK Km app 9.6 Z FGFR3 G697C n/a 3.1 L FGFR2 Km app 0.0 Z PI4KB (PI4K beta) Km app -4.7 A
MAPK11 (p38 beta) Km app 9.5 Z RIPK2 n/a 3.1 L AKT2 (PKB beta) Km app 0.0 Z PRKCE (PKC epsilon) Km app -4.9 Z
SRC Km app 9.5 Z PAK6 Km app 3.0 Z EPHB2 Km app -0.1 Z PHKG1 Km app -5.0 Z
CHEK1 (CHK1) Km app 9.3 Z LYN B Km app 3.0 Z TGFBR2 n/a -0.1 L PDGFRA D842V Km app -5.0 Z
CAMK2D (CaMKII delta) Km app 9.3 Z DAPK2 n/a 2.9 L TEK (Tie2) Km app -0.1 Z PRKG2 (PKG2) Km app -5.1 Z
PLK1 Km app 9.2 Z EPHA4 Km app 2.9 Z AURKA (Aurora A) Km app -0.1 Z TYRO3 (RSE) Km app -5.1 Z
RET Y791F Km app 9.2 Z PIK3CG (p110 gamma) Km app 2.9 A KIT D816H n/a -0.2 L TAOK2 (TAO1) Km app -5.1 Z
FLT3 Km app 9.1 Z HIPK1 (Myak) Km app 2.8 Z KIT N822K n/a -0.2 L EPHB4 Km app -5.3 Z
MAPK10 (JNK3) 100 9.0 Z ADRBK2 (GRK3) Km app 2.8 Z PRKACG (PRKAC gamma) n/a -0.2 L AURKC (Aurora C) Km app -5.4 Z
CSNK2A2 (CK2 alpha 2) Km app 8.7 Z STK17B (DRAK2) n/a 2.7 L TEK (TIE2) Y1108F n/a -0.3 L JAK1 Km app -5.7 Z […]

T1 sequence (Q96PY6 whole entry): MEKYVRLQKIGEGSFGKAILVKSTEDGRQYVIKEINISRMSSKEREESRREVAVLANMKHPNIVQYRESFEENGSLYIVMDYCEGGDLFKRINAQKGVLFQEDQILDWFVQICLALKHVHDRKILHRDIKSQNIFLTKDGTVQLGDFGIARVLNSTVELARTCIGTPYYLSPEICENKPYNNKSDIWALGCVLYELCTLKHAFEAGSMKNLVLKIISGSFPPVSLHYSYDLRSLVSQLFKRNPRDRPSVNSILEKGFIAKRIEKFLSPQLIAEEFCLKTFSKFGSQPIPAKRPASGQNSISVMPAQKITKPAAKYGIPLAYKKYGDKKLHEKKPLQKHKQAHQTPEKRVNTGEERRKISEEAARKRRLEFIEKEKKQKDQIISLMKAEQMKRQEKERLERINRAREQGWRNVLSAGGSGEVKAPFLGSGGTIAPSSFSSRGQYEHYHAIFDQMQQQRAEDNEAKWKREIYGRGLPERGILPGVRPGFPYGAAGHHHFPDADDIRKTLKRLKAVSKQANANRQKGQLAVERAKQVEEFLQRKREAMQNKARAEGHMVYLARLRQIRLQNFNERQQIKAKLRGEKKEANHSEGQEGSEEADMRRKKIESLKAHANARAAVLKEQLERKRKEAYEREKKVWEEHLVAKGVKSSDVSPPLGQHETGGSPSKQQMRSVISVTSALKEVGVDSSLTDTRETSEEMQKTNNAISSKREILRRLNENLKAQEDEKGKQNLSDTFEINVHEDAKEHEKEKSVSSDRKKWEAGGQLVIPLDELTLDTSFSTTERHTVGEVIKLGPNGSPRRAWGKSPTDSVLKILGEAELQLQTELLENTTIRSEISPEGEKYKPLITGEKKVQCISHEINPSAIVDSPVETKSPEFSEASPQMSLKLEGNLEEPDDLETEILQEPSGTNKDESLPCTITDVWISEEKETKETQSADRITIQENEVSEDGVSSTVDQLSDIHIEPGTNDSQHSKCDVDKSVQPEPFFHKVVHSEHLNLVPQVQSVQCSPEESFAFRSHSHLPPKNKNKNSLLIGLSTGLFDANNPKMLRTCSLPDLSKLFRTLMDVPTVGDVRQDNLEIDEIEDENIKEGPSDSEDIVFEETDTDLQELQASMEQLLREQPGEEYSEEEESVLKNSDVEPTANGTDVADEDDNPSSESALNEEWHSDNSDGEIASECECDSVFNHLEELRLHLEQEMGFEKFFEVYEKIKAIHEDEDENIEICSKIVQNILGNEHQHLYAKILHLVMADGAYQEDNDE

In the case of CN(C(=O)CN1CCOCC1)c1ccc2sc3c(-c4cccc5c(=O)cc(N6CC7CCC(C6)O7)oc45)cccc3c2c1 [NU5455], the inhibition at 1 µM is reported as 12.9%.
